{"source": "patent US20250387360A1", "about": "“Methods and Compositions for Treatment of Addiction” (University of Connecticut, priority 2024, published 2025)", "test_system": "male C57BL/6J mice", "experiment": "4-day DID binge-like ethanol drinking with SCFA supplementation in drinking water", "type": "in vivo, mouse", "settings": "for alcohol intake with SCFA supplement: 200 mM in drinking water 10 days, n=7 mice/group", "text": "Male C57BL/6J mice, (RRID: IMSR_JAX: 000664), aged 6-8 weeks, were obtained from Jackson Laboratories (ME, U.S.A) for the study. The mice were housed individually under a reversed 12-hours light/dark cycle, with lights off from […] to 7:00 am. A minimum acclimation period of 2 weeks was provided for all animals before they were randomly assigned to their respective groups. Mice had free access to food (Irradiated chow, Teklad global 18% protein rodent diet, 2918, Inotiv, WI, U.S.A) and deionized water to acclimate to the testing environment. Body weight and daily food and fluid intake were monitored and noted for all animal experiments.\nA standard 4-day drinking in the dark (DID) model was used to evaluate binge-like ethanol drinking patterns in mice. A 20% v/v ethanol solution was prepared by diluting 190-proof ethyl alcohol (Sigma, MO, U.S.A) with deionized water. During days 1-3, the water bottles were temporarily removed during the dark cycle of the mice, and the mice were provided with a tube containing the 20% v/v ethanol solution for a duration of two hours. On day four, the assessment of binge-like ethanol consumption took place, where the mice were given access to the 20% v/v ethanol solution for a period of four hours. The volume of fluid in the tube (read to the closest 100 μL) was measured immediately upon placement, and at two hours and four hours into the test. Following the completion of the four hours test, approximately 100 μL of blood was collected through cardiac puncture after CO2 euthanasia. Blood samples were subjected to centrifugation at 10,000 rpm for 10 minutes. The determination of blood ethanol concentrations (BEC) was performed using an Analox AMI Analyzer (Analox Instruments, MA, U.S.A). The quantity of ethanol consumed was then calculated as grams per kilogram of the mouse's body weight.\nAll SCFA were used in sodium salt form. Briefly, sodium acetate (Sigma, MO, U.S.A), sodium butyrate (Sigma, MO, U.S.A), sodium valerate (Ambeed, IL, U.S.A), and sodium chloride (NaCl; Sigma, Mo, U.S.A) were prepared at 200 mM concentration freshly in drinking water every two days. These concentrations were chosen based on earlier studies conducted in mice [Qi Y., et al., Sodium acetate regulates milk fat synthesis through the activation of GPR41/GPR43 signaling pathway. Frontiers in nutrition 2023, 10:1098715; Daien C I, et al., Gut-derived acetate promotes B10 cells with anti-inflammatory effects. JCI insight 2021, 6 (7)]. All SCFA and NaCl solutions were pH verified to control for acidity effects on daily consumption. SCFAs were given to mice via oral drinking for 10 consecutive days before any experiment, and this regimen was maintained throughout the entire experiment.\nGeneral statistical analysis (non-microbiome and non-RNAseq analysis) were conducted using GraphPad Prism 8 (GraphPad, CA, USA, RRID:SCR_002798). For the calculation of ethanol consumption during the DID procedure, it was expressed as grams of ethanol per kilogram of body weight (g/kg body weight), where 20% ethanol intake was determined as follows: multiplying the drinking volume by the ethanol percentage within that volume and the density of ethanol, and then dividing this by the mouse's body weight in kilograms. Normality of data distributions was tested by Shapiro-Wilk test and by Q-Q plots. Levene's test was used to test equality of variances across groups. Unpaired Student's t-tests were used to compare behavioral testing, GABA levels, and histone acetylation measurements between the sodium valerate and NaCl groups. To evaluate the impact of antibiotic cocktail administration on ethanol consumption and BEC between the groups receiving Abx and PBS at baseline and after treatment, a mixed ANOVA test was employed, given repeated measures from the same mouse from the two time points. Similarly, mixed ANOVA tests were applied to compare various SCFA levels before and after Abx administration.", "key": {"[1]": {"settings": "supplementation in drinking water, DID"}}}
{"compound": "CCCC(=O)[O-].[Na+]", "note": "[sodium butyrate, reference compound]", "values": [{"measurement": "alcohol intake with SCFA supplement", "result": "no statistical changes"}]}
{"compound": "CCCCC(=O)O", "note": "[valeric acid]", "values": [{"measurement": "BEC (in words)", "setting": "[1]", "result": "significant reduction"}, {"measurement": "ethanol consumption (in words)", "setting": "[1]", "result": "significant reduction"}]}
{"compound": "CC(=O)[O-].[Na+]", "note": "[sodium acetate, reference compound]", "values": [{"measurement": "alcohol intake with SCFA supplement", "result": "no statistical changes"}]}
